Reference: US20200291018A1, “TAM KINASE INHIBITORS” (SYROS PHARMACEUTICALS, INC., priority 2017, published 2020)

Assays:
AXL = target: T1, AXL (Homo sapiens, UniProt P30530); assay: TR-FRET kinase activity assay, AXL; assay type: biochemical; details: ATP at Km, 60 minutes
T1 sequence (P30530 26-894): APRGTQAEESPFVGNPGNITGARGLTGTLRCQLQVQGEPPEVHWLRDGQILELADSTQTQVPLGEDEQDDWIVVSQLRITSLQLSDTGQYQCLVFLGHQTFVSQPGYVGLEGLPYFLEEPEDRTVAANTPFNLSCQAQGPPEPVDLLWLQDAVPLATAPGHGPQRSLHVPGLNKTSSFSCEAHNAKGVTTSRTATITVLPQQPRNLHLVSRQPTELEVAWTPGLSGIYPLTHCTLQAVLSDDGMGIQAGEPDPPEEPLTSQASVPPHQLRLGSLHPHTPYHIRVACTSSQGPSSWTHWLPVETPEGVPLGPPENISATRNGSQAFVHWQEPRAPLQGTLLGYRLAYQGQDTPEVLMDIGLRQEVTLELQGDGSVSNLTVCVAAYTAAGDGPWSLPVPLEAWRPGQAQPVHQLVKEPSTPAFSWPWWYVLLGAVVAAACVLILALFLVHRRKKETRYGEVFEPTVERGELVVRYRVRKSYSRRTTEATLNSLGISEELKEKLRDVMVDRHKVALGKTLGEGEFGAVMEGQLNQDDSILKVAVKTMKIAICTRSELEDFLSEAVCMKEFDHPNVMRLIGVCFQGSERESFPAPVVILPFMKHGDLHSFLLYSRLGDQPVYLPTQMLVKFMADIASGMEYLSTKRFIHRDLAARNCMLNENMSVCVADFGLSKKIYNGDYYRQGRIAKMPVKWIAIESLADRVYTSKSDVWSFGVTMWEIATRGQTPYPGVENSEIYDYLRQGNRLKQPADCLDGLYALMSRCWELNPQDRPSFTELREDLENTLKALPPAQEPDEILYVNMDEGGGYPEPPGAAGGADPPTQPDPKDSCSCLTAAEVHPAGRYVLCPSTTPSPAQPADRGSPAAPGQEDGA
In short: (§1)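 Enzyme, fluorescent-labeled peptide substrate and compound were mixed, then ATP was added at each enzyme's Km. Buffer was 50 mM HEPES pH 7.5, 10 mM MgCl2, 1 mM EGTA, 0.01% Brij 35, 1 mM DTT at RT. After 60 min, EDTA quench and 30 min with Eu-anti-phosphotyrosine-site antibody; TR-FRET read gave IC50.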

FLT3 = target: T2, FLT3 (Homo sapiens, UniProt P36888); assay: TR-FRET kinase activity assay, FLT3; assay type: biochemical; details: ATP at Km, 60 minutes
T2 sequence (P36888 27-993): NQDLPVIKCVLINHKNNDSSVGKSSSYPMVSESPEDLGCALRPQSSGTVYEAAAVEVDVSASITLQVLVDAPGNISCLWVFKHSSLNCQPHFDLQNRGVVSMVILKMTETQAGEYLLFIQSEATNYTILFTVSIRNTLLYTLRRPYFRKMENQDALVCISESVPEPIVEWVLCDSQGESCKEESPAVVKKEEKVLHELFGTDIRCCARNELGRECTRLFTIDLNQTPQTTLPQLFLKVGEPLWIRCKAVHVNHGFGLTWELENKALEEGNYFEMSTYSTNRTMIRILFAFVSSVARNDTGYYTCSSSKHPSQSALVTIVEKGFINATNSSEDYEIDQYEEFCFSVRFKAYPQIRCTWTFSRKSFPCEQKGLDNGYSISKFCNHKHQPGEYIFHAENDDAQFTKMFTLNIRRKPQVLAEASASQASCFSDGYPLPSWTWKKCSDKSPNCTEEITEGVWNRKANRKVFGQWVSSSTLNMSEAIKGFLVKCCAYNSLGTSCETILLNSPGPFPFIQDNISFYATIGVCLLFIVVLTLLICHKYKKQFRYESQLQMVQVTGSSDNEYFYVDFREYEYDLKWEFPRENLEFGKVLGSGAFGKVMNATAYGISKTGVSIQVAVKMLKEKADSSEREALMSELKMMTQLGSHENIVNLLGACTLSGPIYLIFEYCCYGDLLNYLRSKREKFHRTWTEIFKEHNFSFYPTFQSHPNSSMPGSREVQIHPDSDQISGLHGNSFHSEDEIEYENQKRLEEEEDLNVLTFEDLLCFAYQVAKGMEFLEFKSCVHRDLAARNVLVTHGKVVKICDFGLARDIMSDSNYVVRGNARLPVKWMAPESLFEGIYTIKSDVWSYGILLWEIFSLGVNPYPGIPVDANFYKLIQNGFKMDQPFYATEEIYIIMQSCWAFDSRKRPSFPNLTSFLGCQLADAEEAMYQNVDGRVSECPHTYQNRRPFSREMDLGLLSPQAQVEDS
In short: as §1

| SMILES | IC50 (AXL) | IC50 (FLT3) |
| --- | --- | --- |
| O[C@H]1CC[C@H](c2cnc(OC3CCNCC3)c3cnc(NC4CCC(F)(F)CC4)nc32)CC1 [Compound 164] | 1000 to 10000 nM | 1000 to 10000 nM |
| CCCC(C)Nc1ncc2c(NC3CCN(C(=O)C(F)(F)F)CC3)ncc([C@H]3CC[C@H](O)CC3)c2n1 (stereo partly shown) [Compound 165] | 100 to 1000 nM | 100 to 1000 nM |
| CCCC(C)Nc1ncc2c(OC3CCNCC3)ncc([C@H]3CC[C@H](O)CC3)c2n1 (stereo partly shown) [Compound 166] | 100 to 1000 nM | 100 to 1000 nM |
| CC1CC(Nc2ncc3c(OC4CCNCC4)ncc([C@H]4CC[C@H](O)CC4)c3n2)C1 (stereo partly shown) [Compound 167] | ≤ 100 nM | ≤ 100 nM |
| CC1CC(Nc2ncc3c(OC4CCNCC4)ncc([C@H]4CC[C@@H](O)CC4)c3n2)C1 (stereo partly shown) [Compound 168] | 100 to 1000 nM | 100 to 1000 nM |
| CCCC(C)Nc1ncc2c(=O)n(CCN(C)C)cc([C@H]3CC[C@H](O)CC3)c2n1 (stereo partly shown) [Compound 169] | 1000 to 10000 nM | 1000 to 10000 nM |
| CCCC(C)Nc1ncc2c(OC3CCN(CCC(=O)N(C)C)CC3)ncc([C@H]3CC[C@H](O)CC3)c2n1 (stereo partly shown) [Compound 170] | 100 to 1000 nM | 1000 to 10000 nM |
| CCC[C@H](C)Nc1ncc2c(OC3CCNCC3)ncc([C@H]3CC[C@H](O)CC3)c2n1 [Compound 171] | ≤ 100 nM | 100 to 1000 nM |
| CCCC(C)Nc1ncc2c(OC3CCN(CC(=O)N(C)C)CC3)ncc([C@H]3CC[C@H](O)CC3)c2n1 (stereo partly shown) [Compound 172] | 100 to 1000 nM | 1000 to 10000 nM |
| CCCC(C)Nc1ncc2c(OC3CCN(CCOC)CC3)ncc([C@H]3CC[C@H](O)CC3)c2n1 (stereo partly shown) [Compound 173] | 100 to 1000 nM | 1000 to 10000 nM |
| CCCC(C)Nc1ncc2c(O[C@@H]3C[C@H]4CC[C@@H](C3)O4)ncc([C@H]3CC[C@H](O)CC3)c2n1 (stereo partly shown) [Compound 174] | 100 to 1000 nM | 1000 to 10000 nM |
| CCCC(C)Nc1ncc2c(O[C@H]3C[C@H]4CC[C@@H](C3)O4)ncc([C@H]3CC[C@H](O)CC3)c2n1 (stereo partly shown) [Compound 175] | 100 to 1000 nM | 100 to 1000 nM |
| CCCC(C)Nc1ncc2c(O[C@H]3C[C@@H](O)C3)ncc([C@H]3CC[C@H](O)CC3)c2n1 (stereo partly shown) [Compound 176] | 100 to 1000 nM | 100 to 1000 nM |
| CCCC(C)Nc1ncc2c(=O)n(CCN3CCOCC3)cc([C@H]3CC[C@H](O)CC3)c2n1 (stereo partly shown) [Compound 177] | 1000 to 10000 nM | 1000 to 10000 nM |
| CC(C)C(C)Nc1ncc2c(OC3CCNCC3)ncc([C@H]3CC[C@H](O)CC3)c2n1 (stereo partly shown) [Compound 178] | 100 to 1000 nM | 1000 to 10000 nM |
| CCCC(C)Nc1ncc2c(N(C)C3CCNCC3)ncc([C@H]3CC[C@H](O)CC3)c2n1 (stereo partly shown) [Compound 179] | 100 to 1000 nM | 1000 to 10000 nM |
| CCCC(C)Nc1ncc2c(N3CCC[C@H](N(C)C)C3)ncc([C@H]3CC[C@H](O)CC3)c2n1 (stereo partly shown) [Compound 180] | 1000 to 10000 nM | 1000 to 10000 nM |
| CCCC(C)Nc1ncc2c(N3CC(N(C)C)C3)ncc([C@H]3CC[C@H](O)CC3)c2n1 (stereo partly shown) [Compound 181] | 1000 to 10000 nM | 1000 to 10000 nM |
| CCCC(C)Nc1ncc2c(OCCN3CCOCC3)ncc([C@H]3CC[C@H](O)CC3)c2n1 (stereo partly shown) [Compound 182] | 1000 to 10000 nM | 100 to 1000 nM |

| SMILES | IC50 (AXL) | IC50 (FLT3) |
| --- | --- | --- |
| O[C@H]1CC[C@H](c2cnc(OC3CCNCC3)c3cnc(NC4CCCCC4)nc32)CC1 [Compound 183] | 100 to 1000 nM | 100 to 1000 nM |
| CCCC(C)Nc1ncc2c(OC3CCOCC3)ncc([C@H]3CC[C@@H](N(C)C)CC3)c2n1 (stereo partly shown) [Compound 184] | 1000 to 10000 nM | 1000 to 10000 nM |
| CCCC(C)Nc1ncc2c(OC3CCOCC3)ncc([C@H]3CC[C@H](N(C)C)CC3)c2n1 (stereo partly shown) [Compound 185] | 100 to 1000 nM | 100 to 1000 nM |
| CCCC(C)Nc1ncc2c(=O)n(C3CCN(C(C)C)CC3)cc([C@H]3CC[C@H](O)CC3)c2n1 (stereo partly shown) [Compound 186] | 100 to 1000 nM | 1000 to 10000 nM |
| CCCC(C)Nc1ncc2c(O[C@H]3C[C@H](O)C3)ncc([C@H]3CC[C@H](O)CC3)c2n1 (stereo partly shown) [Compound 187] | 100 to 1000 nM | 100 to 1000 nM |
| CCCC(C)Nc1ncc2c(N3CCC[C@@H](N(C)C)C3)ncc([C@H]3CC[C@H](O)CC3)c2n1 (stereo partly shown) [Compound 188] | 1000 to 10000 nM | 1000 to 10000 nM |
| C[C@H](Nc1ncc2c(OC3CCNCC3)ncc([C@H]3CC[C@H](O)CC3)c2n1)c1ccccc1 [Compound 189] | 1000 to 10000 nM | 1000 to 10000 nM |
| CCC[C@H](C)Nc1ncc2c(OC3CCN(C)CC3)ncc([C@H]3CC[C@H](O)CC3)c2n1 [Compound 190] | 100 to 1000 nM | 1000 to 10000 nM |
| CCCC(C)Nc1ncc2c(OCCN(C)C)ncc([C@H]3CC[C@H](O)CC3)c2n1 (stereo partly shown) [Compound 191] | 1000 to 10000 nM | 1000 to 10000 nM |
| CCCC(C)Nc1ncc2c(=O)n(C3CCN(C(=O)CN(C)C)CC3)cc([C@H]3CC[C@H](O)CC3)c2n1 (stereo partly shown) [Compound 192] | 1000 to 10000 nM | 1000 to 10000 nM |
| CCCC(C)Nc1ncc2c(=O)n(CC3CCN(C)CC3)cc([C@H]3CC[C@H](O)CC3)c2n1 (stereo partly shown) [Compound 193] | 100 to 1000 nM | 1000 to 10000 nM |
| C[C@@H](CC(F)(F)F)Nc1ncc2c(O[C@H]3C[C@](C)(O)C3)ncc([C@H]3CC[C@H](O)CC3)c2n1 [Compound 430] | 100 to 1000 nM | 100 to 1000 nM |
| COC[C@H](C)Nc1ncc2c(O[C@H]3C[C@@H](O)C3(C)C)ncc([C@H]3CC[C@H](O)CC3)c2n1 [Compound 431] | 1000 to 10000 nM | 1000 to 10000 nM |
| COCCN1[C@@H]2CC[C@H]1C[C@H](Oc1ncc([C@H]3CC[C@H](O)CC3)c3nc(N[C@@H](C)CC(F)(F)F)ncc13)C2 [Compound 432] | ≤ 100 nM | 100 to 1000 nM |
| CC(=O)N[C@H]1C[C@@H](Oc2ncc([C@H]3CC[C@H](O)CC3)c3nc(N[C@@H](C)CC(F)(F)F)ncc23)C1 [Compound 433] | ≤ 100 nM | 100 to 1000 nM |
| CO[C@H]1C[C@@H](Oc2ncc([C@H]3CC[C@H](O)CC3)c3nc(N[C@@H](C)CC(F)(F)F)ncc23)C1 [Compound 434] | 100 to 1000 nM | 100 to 1000 nM |
| COC(=O)N[C@H]1C[C@@H](Oc2ncc([C@H]3CC[C@H](O)CC3)c3nc(N[C@@H](C)CC(F)(F)F)ncc23)C1 [Compound 435] | ≤ 100 nM | ≤ 100 nM |
| CC(=O)N1[C@@H]2CC[C@H]1C[C@H](Oc1ncc([C@H]3CC[C@H](O)CC3)c3nc(N[C@@H](C)CC(F)(F)F)ncc13)C2 [Compound 436] | ≤ 100 nM | 100 to 1000 nM |
| C[C@@H](CC(F)(F)F)Nc1ncc2c(O[C@@H]3C[C@H]4CC[C@@H](C3)N4C3COC3)ncc([C@H]3CC[C@H](O)CC3)c2n1 [Compound 437] | ≤ 100 nM | 100 to 1000 nM |
